# Laboratory results published in patent publication US12187992B2, “Method and device for early cancer screening” (The Regents of the University of California, priority 2020, dated 2025).
# “Also recorded” adds a separate entry of the source.
# Tests used:
# Type in all cases: cell-based, human
# [1] = tested on: weakly adherent MDA-MB-231 cells; assay: 2D migration assay on step-gradient hydrogels under drug treatment (durotaxis); details: WA mammary cells
# From the text: (§1) A two-step photopolymerization method was used as described previously (Happe et al., 2017) to produce hydrogels with alternating elasticity profiles. Acrylamide concentrations of the prepolymer solutions were modified to obtain elasticities matching that of the tumor and stromal environment of each type of cancer. For breast cancer hydrogels, 3% acrylamide (3.7% for lung, 6.4% for prostate) and 0.4% bis-acrylamide were used for the first prepolymer solution, which was polymerized between a methacrylated 18 mm coverslip and a chlorosilanated glass slide by exposing to ultraviolet light (350 nm) for 5 minutes, using 2-hydroxy-4′-(2-hydroxyethoxy)-2-methylpropiophenone (0.5%) as the photo-initiator. The PA hydrogel was removed from the chlorosilanated glass slide and dehydrated for 1 hour on a hot plate at 30° C. prior to rehydrating with a 2% acrylamide (3.7% for lung, 3.2% for prostate) and 0.4% bis-acrylamide prepolymer solution. The rehydrated gel was again exposed to UV light for 5 min through a high-resolution chrome patterned photomask 200 μm dark stripes and 100 μm clear stripes. The Young's moduli of each region were validated using atomic force microscopy.
# (§2) The hydrogels were then placed in a 12-well plate on top of 50 μl of 2 mg/ml of collagen I to adhere the coverslip to the bottom of the well. After the collagen polymerized, the gels were immersed in a solution of sulfosuccinimidyl 6-(4′-azido-2′-nitrophenylamino)hexanoate (0.2 mg/ml, Sulfo-SANPAH; Pierce) dissolved in 4-(2-hydroxyethyl)-1-piperazineethanesulfonic acid buffer (pH 8.4, 50 mM) and exposed to UV light (350 nm) for 10 minutes. After washing several times with PBS, the functionalized surface of the gels was coated with collagen I (150 μg/ml) by incubating overnight at 37° C.
# (§3) Weakly and strongly adherent cells were isolated at varying shear stresses using a parallel plate flow chamber (Beri et al., 2020). To ensure sufficient spacing between individual cells, MDA-MB-231 and NCI-H1299 cells were seeded at […] onto a fibronectin (2 μg/cm^2) coated glass plate and incubated overnight. […] For each cell line, PBS free of magnesium and calcium and with 4.5 g/L of dextrose was used to shear cells. Shear stresses used to detach the weakly adherent (WA) population were selected to collect about 20,000 cells at a given flow rate (3 min at 30 dynes/cm^2 for MDA-MB-231, 3 min at 60 dynes/cm^2 for PC-3 and NCI-H1299 cells). The strongly adherent (SA) population was collected after washing away the intermediate population at a higher shear stress (2 min 500 at dynes/cm^2 for MDA-MB-231, 5 min at 300 dynes/cm^2 for NCI-H1299, and 2 min at 750 dynes/cm^2 for PC-3), and detaching the remaining SA population using 0.25% trypsin-EDTA. Media was then pumped though the device to neutralize the trypsin and collect the SA cells. Collected cells were then seeded onto hydrogels and allowed to adhere for […] 2 hours prior to imaging.
# (§4) Isolated cells were seeded at ˜1500 cells/well onto step-gradient gels fixed in a 12-well plate and allowed to adhere for no more than 2 hours to ensure a random distribution across the step-gradient at the start of imaging. The cells were imaged over 24 hours using a Nikon Eclipse Ti-S microscope equipped with a temperature and CO2 controller (Pathology Devices Inc., LiveCell). […] Cell trajectories were collected and analyzed using a custom MATLAB script (https://github.com/compactmatterlab/Durotaxis, MathWorks, Natick, MA). […]
# [2] = tested on: strongly adherent MDA-MB231 cells; assay: 2D migration assay on collagen gels under microtubule-targeting drug treatment; details: nocodazole 0.2 ug/mL, paclitaxel 0.5 ug/mL, tracked 24 hours on collagen gels
# Protocol: (§5) To isolate the weakest and strongest 2% of the MDA-MB231 cell population for migration assays, the seeded plate was subjected to a low shear stress (28 dynes/cm^2) for 3 minutes to isolate WA cells in the flow through from the outlet. The shear stress was then increased to a high shear stress (510 dynes/cm^2) for 2 minutes to eliminate intermediate cell fractions. The remaining steps to isolate SA cells are listed above. The weakest MCF10A and […] cells were isolated using 170 and 130 dynes/cm^2 of shear stress respectively; the strongest were isolated using 1275 and 595 dynes/cm^2 respectively. 2D migration assays on collagen gels: 2.4 mg/mL Type I collagen gels were prepared by mixing collagen (Corning) with PBS, DI water, and 1 M NaOH and adjusted to pH 7.0. Gels were added to a 12-well plate and cured at 37° C. for 30 minutes. The weakest and strongest 2% of the cell population were seeded onto the gels and incubated overnight. The cells were imaged with a Nikon Eclipse Ti-S microscope equipped with a temperature- and CO2-controlled stage. Cells were imaged at 10× in brightfield every 15 minutes for 24 hours. The migration data was analyzed via Fiji. The positions were normalized to the starting point and analyzed via a custom MATLAB script to compute instantaneous speed and cell displacement. […] Cells that interacted with other cells for more than 2 hours were not tracked, as cell-cell interactions artificially slowed cell speed. For MDA-MB231 cell migration under drug treatment, cells were treated with either 0.2 μg/mL nocodazole (Cayman Chemical) or 0.5 μg/mL paclitaxel (LC Laboratories). Cells were imaged the following day for 24 hours and tracked as stated above.
# [3] = tested on: weakly adherent MDA-MB231 cells; assay: as above; details: nocodazole 0.2 ug/mL, paclitaxel 0.5 ug/mL, tracked 24 hours on collagen gels
# Protocol: as §5
# [4] = tested on: strongly adherent MDA-MB-231 cells; assay: 2D migration assay on step-gradient hydrogels under drug treatment (durotaxis); details: SA mammary cells; LPA 1, 10 μM or DMSO; t=3 and t=24 hours
# From the text: as §1, §2, §3, §4
molecule,measurement,setting,value
"Cc1ccc2c(c1)C(=O)[C@]1(O)CCN(c3ccc([N+](=O)[O-])cc3)C1=N2 [blebbistatin, (S)-4′-nitro-Blebbistatin]",cell speed on soft and stiff substrates,"[1]; blebbistatin 100 μM vs DMSO, step-gradient hydrogels",decreased
same,"durotactic behavior (cell fraction vs hydrogel position), dose dependent response","[1]; blebbistatin 1, 10, 100 μM or DMSO, t=3 and t=27 hours",became more durotactic
same,antidurotactic migration,[1]; blebbistatin-treated vs DMSO,much less likely
same,likelihood to migrate from the soft substrate into the stiff substrate (durotactic migration),[1]; blebbistatin-treated vs DMSO,2 fold
COC(=O)Nc1nc2ccc(C(=O)c3cccs3)cc2[nH]1 [nocodazole],average migration speed,[2],unaffected; also recorded: no change
same,average migration speed,[3],migration speed reduced to that of the strongly adherent cells; also recorded: significant decrease in migration speed; also recorded: significant decrease in average speed
CC(=O)O[C@H]1C(=O)[C@@]2(C)[C@H]([C@H](OC(=O)c3ccccc3)[C@]3(O)C[C@H](OC(=O)[C@H](O)[C@@H](NC(=O)c4ccccc4)c4ccccc4)C(C)=C1C3(C)C)[C@]1(OC(C)=O)CO[C@@H]1C[C@@H]2O [paclitaxel],average migration speed,[2],unaffected; also recorded: no change
same,average migration speed,[3],migration speed reduced to that of the strongly adherent cells; also recorded: significant decrease in migration speed; also recorded: significant decrease in average speed
lysophosphatidic acid [lysophophatidic acid],"durotactic behavior (cell fraction vs hydrogel position), dose dependent response",[4],became less durotactic
